Reference: the supplement of paper PMC10307832

Legend:
Assay in all cases: relative viability (nuclei count vs DMSO), 5 days (fraction); higher = more cells survive
[1] = compound: Cc1nc(C(=O)NCC(=O)O)c(O)c2ccc(Oc3ccccc3)cc12 [FG-4592] + CC(C)C[C@H](NC(=O)[C@H](Cc1ccccc1)NC(=O)c1cnccn1)B(O)O [Bortezomib] (partner 0.002 µM)
Summary of the method: (§1)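 Medians of duplicate plates are given as relative viability. That measure is the nuclei count in treated wells divided by the count in vehicle wells. Counts were taken on 4× images of lung cancer cell lines in 1536-well plates, 5 days after pin-tool dosing the day after seeding with one drug alone or a fixed anchor-drug dose plus five library-drug doses (not always all listed) in √10 steps.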

[2] = compound: CC1=CC(=C(N1C2=CC=C(C=C2)Cl)C)C(=O)CN3CCCCC3 [IU1-47] + CC(C)C[C@H](NC(=O)[C@H](Cc1ccccc1)NC(=O)c1cnccn1)B(O)O [Bortezomib] (partner 0.002 µM)
Summary of the method: as §1

[3] = compound: CC1=CC(=C(N1C2=CC=C(C=C2)Cl)C)C(=O)CN3CCCCC3 [IU1-47] + C[C@@H](Oc1cc(-c2cnn(C3CCNCC3)c2)cnc1N)c1c(Cl)ccc(F)c1Cl [Crizotinib] (partner 1 µM)
Summary of the method: as §1

[4] = compound: Cc1nc(C(=O)NCC(=O)O)c(O)c2ccc(Oc3ccccc3)cc12 [FG-4592] + NC(=O)Nc1cc(-c2cccc(F)c2)sc1C(=O)N[C@H]1CCCNC1 [AZD7762] (partner 0.2 µM)
Summary of the method: as §1

Cell Line	relative viability ([1]; first compound 0.08 µM)	relative viability ([1]; first compound 0.253 µM)	relative viability ([1]; first compound 0.8 µM)	relative viability ([1]; first compound 2.53 µM)	relative viability ([1]; first compound 8 µM)	relative viability ([2]; first compound 0.08 µM)	relative viability ([2]; first compound 0.253 µM)	relative viability ([2]; first compound 0.8 µM)	relative viability ([2]; first compound 2.53 µM)	relative viability ([2]; first compound 8 µM)	relative viability ([3]; first compound 0.08 µM)	relative viability ([3]; first compound 0.253 µM)	relative viability ([3]; first compound 0.8 µM)	relative viability ([3]; first compound 2.53 µM)	relative viability ([3]; first compound 8 µM)	relative viability ([4]; first compound 0.08 µM)	relative viability ([4]; first compound 0.253 µM)	relative viability ([4]; first compound 0.8 µM)	relative viability ([4]; first compound 2.53 µM)	relative viability ([4]; first compound 8 µM)
NCI-H3122	1.03	1.02	1.13	1.07	1.07	0.962	1.02	1.08	1.09	0.996	0.277	0.27	0.295	0.269	0.241	0.985	0.922	1.06	1.02	0.952
NCI-H1975	0.369	0.318	0.34	0.4	0.307	0.375	0.408	0.455	0.308	0.317	1.04	1.01	1	1.01	0.845	0.782	0.644	0.684	0.712	0.709
NCI-H1944	–	–	–	–	–	–	–	–	–	–	1.15	1.21	1.08	–	1.09	0.479	0.675	0.368	0.509	0.471
LU99A	1.08	1.03	0.798	1.04	1.01	1.12	1.23	1.06	1.12	1.09	0.503	0.538	0.538	0.739	0.617	0.37	0.387	–	0.381	0.346
SW 1573	1.04	0.954	0.963	1	1	1.15	1.04	1.41	1.3	0.861	0.728	0.796	0.761	0.859	0.903	–	–	–	–	–
NCI-H2347	–	0.623	0.806	0.782	1.14	0.913	0.76	0.892	0.827	0.746	0.575	0.746	0.727	0.674	0.762	0.72	0.546	0.724	0.85	0.744
NCI-H2009	1.02	0.934	0.948	0.826	0.882	1.11	1.13	0.998	0.513	1.05	1	1.1	0.933	1.1	1.05	–	–	–	–	–
HCC-15	1.01	0.913	1.07	1.07	0.999	1.11	1.05	1.05	0.928	0.856	0.949	0.879	0.908	0.825	0.704	1.29	1.25	1.14	1.18	1.25
COR-L23	1.03	0.874	1.26	0.888	0.889	1.12	1.1	1.21	0.932	1.08	0.735	0.704	0.669	0.817	0.609	–	–	–	–	–
